Test results from article PMC11874779 (Drug Design, Development and Therapy, 2025).

System: Baf3-EGFR^19del/T790M/C797S
Assay: Xenograft tumor model
Type: in vivo, BALB/c nude mice
Conditions: 100 mg/kg ig daily, 9 days, from tumor weight

SMILES: C=CC(=O)Nc1cc(Nc2nccc(-c3cn(C)c4ccccc34)n2)c(OC)cc1N(C)CCN(C)C [Osimertinib]
- Tumor Growth Inhibition value (TGI): 13.5%
